Assay results reported in ChEMBL document CHEMBL5137081, “N-Heterocyclic 3-Pyridyl Carboxamide Inhibitors of DHODH for the Treatment of Acute Myelogenous Leukemia” (J Med Chem, 2022).
Values after ≈ are worked out from the molar mass of the structure shown.

Legend:
[1] = Metabolic stability in human liver microsome assessed as intrinsic clearance pretreated for 5 mins followed by NADPH addition and measured upto 60 mins by HPLC-MS/MS analysis; assay type: ADME; conditions: microsomes, 1.083 h, time < 65 min
[2] = Solubility of compound at pH 7 by HPLC analysis; assay type: physicochemical; conditions: buffer
MOLM-13 = assay: Antiproliferative activity against human MOLM-13 cells incubated for 72 hrs by CellTiter-Glo assay; assay type: functional, cell-based; conditions: MOLM-13, 72 h
[3] = target: Dihydroorotate dehydrogenase (quinone), mitochondrial (Homo sapiens, UniProt Q02127); assay: Inhibition of His fused human DHODH expressed in Escherichia coli using DHO as substrate by DCIP absorbance based colorimetry assay
[4] = Stability in human hepatocytes assessed as intrinsic clearance measured per 10^6 cells incubated upto 120 mins by LC-MS/MS analysis; assay type: ADME, cell-based, Hepatocyte; conditions: 2 h
MDR1 = assay: Efflux ratio of apparent permeability across basolateral to apical side over apical to basolateral side in dog MDCK-MDR1 cells; assay type: ADME, cell-based, Canis lupus familiaris

Sequence of Dihydroorotate dehydrogenase (quinone), mitochondrial (Q02127 whole entry, the tested form may be a part): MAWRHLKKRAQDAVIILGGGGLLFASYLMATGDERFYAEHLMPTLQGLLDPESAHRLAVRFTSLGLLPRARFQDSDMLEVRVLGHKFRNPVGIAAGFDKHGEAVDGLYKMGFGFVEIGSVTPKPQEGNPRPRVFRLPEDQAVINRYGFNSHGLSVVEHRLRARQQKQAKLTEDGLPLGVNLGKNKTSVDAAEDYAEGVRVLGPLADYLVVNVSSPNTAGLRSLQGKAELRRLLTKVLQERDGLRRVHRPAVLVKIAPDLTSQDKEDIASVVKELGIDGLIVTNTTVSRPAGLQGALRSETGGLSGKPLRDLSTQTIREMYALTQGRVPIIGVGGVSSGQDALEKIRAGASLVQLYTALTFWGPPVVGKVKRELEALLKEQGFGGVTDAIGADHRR

Row | CLH [1] | solubility [2] | IC50 (MOLM-13) | IC50 [3] | CLH [4] | efflux ratio (MDR1) | SMILES
1 | 9.1 µL/min/mg | 98 µM (≈ 49.5 µg/mL) | 6.9 nM | 5.2 nM |  |  | CCn1c(CO)nn(-c2nc(O[C@@H](C)C(F)(F)F)c(C(=O)Nc3ncccc3Cl)cc2F)c1=O
2 |  |  | 3.6 nM | 2.3 nM |  |  | CCn1c(CO)nn(-c2nc(O[C@@H](C)C(F)(F)F)c(C(=O)Nc3c(F)cncc3Cl)cc2F)c1=O
3 | 10 µL/min/mg | < 4 µM | 0.16 nM | 0.2 nM |  |  | CCn1c(CO)nn(-c2nc(O[C@@H](C)C(F)(F)F)c(C(=O)Nc3c(F)cccc3Cl)cc2F)c1=O
4 | < 8 µL/min/mg |  | 5 nM | 6.1 nM |  |  | CCn1c(CO)nn(-c2nc(O[C@@H](C)C(F)(F)F)c(C(=O)Nc3ccccc3F)cc2F)c1=O
5 |  |  | 20 nM | 22 nM |  |  | CCn1c(CO)nn(-c2nc(OC3CC(F)(F)C3(F)F)c(C(=O)Nc3c(F)cccc3Cl)cc2F)c1=O (stereo not drawn)
6 | < 7.7 µL/min/mg | > 400 µM | 5.3 nM | 1.9 nM | > 400 µL/min/1e6 cells |  | CCn1c(CO)nn(-c2nc(O[C@@H](C)C(F)(F)F)c(C(=O)Nc3c(Cl)ccnc3C)cc2F)c1=O
7 | 14 µL/min/mg | 381 µM (≈ 205 µg/mL) | 0.7 nM | 0.6 nM | 381 µL/min/1e6 cells |  | CCn1c(CO)nn(-c2nc(O[C@@H](C)C(F)(F)F)c(C(=O)Nc3c(Cl)ccnc3Cl)cc2F)c1=O
8 |  |  | 200 nM | 3600 nM |  |  | CCn1c(CO)nn(-c2nc(NC(C)C)c(C(=O)Nc3c(F)cccc3Cl)cc2F)c1=O
9 |  |  | 25 nM | 32 nM |  |  | CCn1c(CO)nn(-c2nc(OC3CCOC3)c(C(=O)Nc3c(F)cccc3Cl)cc2F)c1=O (racemic)
10 | < 7.7 µL/min/mg | 4 µM (≈ 1.87 µg/mL) | 0.2 nM | 0.5 nM |  |  | CCn1c(CO)nn(-c2nc(OC(C)C)c(C(=O)Nc3c(F)cccc3Cl)cc2F)c1=O
11 | 15 µL/min/mg |  | 0.19 nM | 302 nM |  |  | CCn1c(CO)nn(-c2nc(SC(C)C)c(C(=O)Nc3c(F)cccc3Cl)cc2F)c1=O
12 | 10 µL/min/mg | 51 µM (≈ 27.3 µg/mL) | 0.3 nM | 0.3 nM | 51 µL/min/1e6 cells |  | CCn1c(CO)nn(-c2nc(O[C@@H](C)C(F)(F)F)c(C(=O)Nc3c(Cl)ccnc3OC)cc2F)c1=O
13 |  |  | 13 nM | 14 nM |  |  | CCn1c(CO)nn(-c2nc(O[C@@H](C)C(F)(F)F)c(C(=O)Nc3ccc(C)nc3Cl)cc2F)c1=O

Second part, the compound before the results:

Row | SMILES | CLH [1] | solubility [2] | IC50 (MOLM-13) | IC50 [3] | CLH [4] | efflux ratio (MDR1)
14 | CCn1c(CO)nn(-c2nc(O[C@@H](C)C(F)(F)F)c(C(=O)Nc3c(F)cnc(OC)c3Cl)cc2F)c1=O | < 7.7 µL/min/mg | < 4 µM | 1.4 nM | 1.1 nM |  | 
15 | CCn1c(CO)nn(-c2nc(O[C@@H](C)C(F)(F)F)c(C(=O)Nc3ccncc3Cl)cc2F)c1=O | 15 µL/min/mg | < 4 µM | 61 nM | 23 nM |  | 
16 | CCn1c(CO)nn(-c2nc(O[C@@H](C)C(F)(F)F)c(C(=O)Nc3c(C)ccnc3F)cc2F)c1=O | 14 µL/min/mg | 61 µM (≈ 30.6 µg/mL) | 5 nM | 2.4 nM | 61 µL/min/1e6 cells | 
17 | CCn1c(CO)nn(-c2nc(O[C@@H](C)C(F)(F)F)c(C(=O)Nc3cc(C)cnc3Cl)cc2F)c1=O |  |  | 50 nM | 5.7 nM |  | 
18 | CCn1c(CO)nn(-c2nc(O[C@@H](C)C(F)(F)F)c(C(=O)Nc3cc(OC)ncc3C)cc2F)c1=O |  |  | 26 nM | 10 nM |  | 17
19 | CCn1c(CO)nn(-c2nc(O[C@@H](C)C(F)(F)F)c(C(=O)Nc3c(F)cnc(OC)c3C#N)cc2F)c1=O |  |  | 1 nM | 16 nM |  | > 30
20 | CCn1c(CO)nn(-c2nc(O[C@@H](C)C(F)(F)F)c(C(=O)Nc3c(C)cc(OC)nc3Cl)cc2F)c1=O |  |  | 3 nM | 0.8 nM |  | > 30
21 | CCn1c(CO)nn(-c2nc(O[C@@H](C)C(F)(F)F)c(C(=O)Nc3cccnc3Cl)cc2F)c1=O | < 8 µL/min/mg | < 4 µM | 6.5 nM | 2.8 nM |  | 
22 | CCn1c(CO)nn(-c2nc(O[C@@H](C)C(F)(F)F)c(C(=O)Nc3ccnc(OC)c3Cl)cc2F)c1=O | < 7.7 µL/min/mg |  | 13 nM | 11 nM |  | 
23 | CCn1c(CO)nn(-c2nc(O[C@@H](C)C(F)(F)F)c(C(=O)Nc3cnccc3Cl)cc2F)c1=O | 45 µL/min/mg |  | 9.3 nM | 4.7 nM |  | 
24 | CCC(C)Nc1nccc(-c2cnc3sc(C)cn3c2=O)n1 (stereo not drawn) |  |  |  | 1400 nM |  | 
25 | CCn1c(CO)nn(-c2nc(O[C@@H](C)C(F)(F)F)c(C(=O)Nc3c(C)ccnc3C(F)F)cc2F)c1=O | < 7.7 µL/min/mg | > 400 µM | 4 nM | 2.4 nM | > 400 µL/min/1e6 cells | 
26 | CCn1c(CO)nn(-c2nc(O[C@@H](C)C(F)(F)F)c(C(=O)Nc3c(C)cnc(OC)c3C)cc2F)c1=O | < 7.7 µL/min/mg | 373 µM (≈ 197 µg/mL) | 2.1 nM | 0.56 nM |  | > 30
